# Measured values published in patent US20250275995A1, “NICOTINAMIDE RIBOSIDE DOSAGE REGIMEN FOR TREATING PARKINSON'S DISEASE” (VESTLANDETS INNOVASJONSSELSKAP AS (VIS), priority 2022, published 2025).
# “And” between values parts separate entries of the source, which are not always exact repeats. Identical values can stand only once. “Also recorded” adds a separate entry of the source.
# Key:
# Format in all cases: in vivo, human
# [1] = test system: cerebral NAD levels; experiment: NADPARK: cerebral NAD levels by 31P-MRS
# Description: A-C: 31P-MRS was performed at baseline (v1) and after 30 days of treatment (v2). A: exemplary data from one subject showing voxel position. Spectra were acquired for each grid position. B (top): average processed spectra from multiple voxels (black) and the model fit (red). B (bottom): the model fit is composed of the convolution of all spectral contributions of a simulated dataset fitted to the experimental data. […] PCr: phosphocreatine. C: comparison of cerebral NAD levels in the placebo (PL) and NR groups at baseline (v1) and visit-2 (v2). […] Individual subjects are indicated by dots. Connecting lines show the change between v1 and v2. The black points and lines show the mean of each group. […] D: FDG-PET data from all subjects in the NR-group, showing the mean NR-Related Pattern (NRRP, top panel), PD-related pattern (PRDP, middle panel), and the overlap of the two (bottom panel). NR partially ameliorates the striatal and thalamic hypermetabolism of PD. E: Between visit changes showing increased NRRP expression in the NR versus the placebo group. […]
# NR is well-tolerated. […] While a significant NR-induced increase in cerebral NAD levels was detected at the group level, this effect was not uniform at the individual level.
# Cerebral NAD levels, such as NAD/α-ATP-α molar ratios, can be calculated by using ^31P spectroscopy data from magnetic resonance imaging and spectroscopy (MRI/S) e.g., as shown in FIG. 1B. […] For instance, an anatomical T1-weighted image with the following sequence parameters can be acquired to aid positioning of the ^31P-imaging slab: MPRAGE 3D T1-weighted sagittal volume, TE/TR/TI=2.26 ms/2.4 s/900 ms, acquisition matrix=256×256×192, FOV=256×256×192 mm3, 200 Hz/px readout bandwidth, flip angle=8 degrees and total acquisition duration of 5.6 minutes. ^31P spectroscopy data can then be acquired using a 3D chemical shift imaging (CSI) FID sequence with WALTZ4 1H decoupling and continuous wave nuclear Overhauser effect (NOE) enhancement (Peeters et al., NMR Biomed. 2019; 34: e4169). […]
# [2] = test system: NAD metabolome; experiment: NADPARK: metabolomics, RNA-sequencing and cytokines in blood, muscle, CSF; details: NR 1000 mg daily
# Description: A-C: 31P-MRS was performed at baseline (v1) and after 30 days of treatment (v2). A: exemplary data from one subject showing voxel position. Spectra were acquired for each grid position. B (top): average processed spectra from multiple voxels (black) and the model fit (red). B (bottom): the model fit is composed of the convolution of all spectral contributions of a simulated dataset fitted to the experimental data. […] PCr: phosphocreatine. C: comparison of cerebral NAD levels in the placebo (PL) and NR groups at baseline (v1) and visit-2 (v2). […] Individual subjects are indicated by dots. Connecting lines show the change between v1 and v2. The black points and lines show the mean of each group. […] D: FDG-PET data from all subjects in the NR-group, showing the mean NR-Related Pattern (NRRP, top panel), PD-related pattern (PRDP, middle panel), and the overlap of the two (bottom panel). NR partially ameliorates the striatal and thalamic hypermetabolism of PD. E: Between visit changes showing increased NRRP expression in the NR versus the placebo group. The red line indicates mean values before and after the treatment, black lines indicate individuals with a positive NAD response in the MRS analysis, grey lines indicate individuals without an NAD response in the MRS (*p=0.027, permutation test, 1000 iterations). […] G: Metabolomics in PBMCs, muscle, and CSF.
# NR has widespread metabolic and regulatory effects. […] These findings indicate that NR supplementation increases both mitochondrial respiration and proteostasis—two hallmark pathogenic processes involved in PD.
# [3] = test system: individuals with PD; experiment: NR-SAFE: vital signs, body metrics, ECG
# Description: At screening for trial entry, candidates underwent physical and neurological examination. Enrolled participants were assessed by physical visits by a movement disorder specialist at baseline (visit 1, V1), day 7 (V4), day 14 (V5), day 21 (V6) and day 28 (V7). At baseline and day 28 participants underwent additional assessment with the Movement Disorder Society Unified Parkinson's disease Rating Scale section I-IV (MDS-UPDRS). At all physical visits an electrocardiogram (ECG), vital parameters (blood pressure, pulse, weight, height) and blood samples were obtained. Additional blood samples were taken on day 3 (V2) and day 5 (V3) to assess safety. The participants were interviewed by telephone consultation by a study nurse on day 3 and day 35 to screen for additional adverse events. Participants were instructed to take their anti-Parkinson drugs as they normally would and no changes were made to anti-Parkinson drug treatment during the trial. Adverse events (AEs) were recorded by the investigating physician. These were then classified by severity according to the Common Terminology Criteria for Adverse Events v5.0 (CTCAE)^13 as either mild (1), moderate (2), severe (3), life-threatening (4) or death (5). The AE relation to the study drug was scored as unrelated (1), unlikely (2), possible (3), probable (4) or definitely (5). 13 Freites-Martinez, A., Santana, N., Arias-Santiago, S. & Viera, A. Using the Common Terminology Criteria for Adverse Events (CTCAE—Version 5.0) to Evaluate the Severity of Adverse Events of Anticancer Therapies. Actas Dermosifiliogr (Engl Ed) 112, 90-92 (2021).
# [4] = V1 (baseline), NR 3000 mg daily group, ±sd
# [5] = V7 (day 28), NR 3000 mg daily, ±sd
compound,measurement,setting,value
"NC(=O)c1ccc[n+]([C@@H]2O[C@H](CO)[C@@H](O)[C@H]2O)c1 [NR, nicotinamide riboside]",increase in cerebral NAD-levels,"[1]; 1000 mg NR, treatment group, mean (SD=20%)",38%
same,patients with no evidence of cerebral NAD response,"[1]; NR 1000 mg per day, 30 days",three
same,change in cerebral NAD levels (31P-MRS),"[1]; NR 1000 mg per day, baseline vs 30 days, NR group",highly significant (paired t-test: P=0.016) increase in cerebral NAD levels
same,"NAD-related metabolites in blood (PBMC), muscle and CSF","[2]; 30 days, metabolomics","highly significant (p<<0.001 for all tests) increases in the acid form of NAD (NAAD), and nicotinamide (Nam) degradation products; also recorded: highly significant increase in NAD-related metabolites in blood, muscle and CSF"
same,RNA-sequencing in blood and muscle biopsy,[2]; NR group,"highly significant (FDR<10^−8) upregulation of the mitochondrial, proteasomal and lysosomal pathways"
same,inflammatory cytokines in the central nervous system,[2]; Phase I study,downregulates multiple inflammatory cytokines in the central nervous system
same,Electrocardiography (ECG),"[3]; NR 3000 mg daily, 4 weeks",no changes of clinical significance
same,"changes in systolic or diastolic blood pressure, pulse or weight between visit 1 and visit 7","[3]; NR 3000 mg daily, 4 weeks","No significant changes in systolic or diastolic blood pressure, pulse or weight"
same,patients who developed asymptomatic bradycardia,"[3]; NR group, 3000 mg daily, 4 weeks",Two
same,heart rate of patients with asymptomatic bradycardia,"[3]; NR group, 3000 mg daily, individual patients",58 beats/min and 46 beats/min
same,Diastolic blood pressure,[3]; [4],74.7 ± 8.49 mmHg
same,Pulse,[3]; [4],64.2 ± 14.67 min⁻¹
same,Systolic blood pressure,[3]; [4],122.1 ± 12.53 mmHg
same,Weight,[3]; [4],79.38 ± 11.92 kg
same,Diastolic blood pressure,[3]; [5],76.2 ± 6.81 mmHg
same,Pulse,[3]; [5],61.1 ± 12.95 min⁻¹
same,Systolic blood pressure,[3]; [5],122.2 ± 7.49 mmHg
same,Weight,[3]; [5],79.38 ± 11.79 kg
same,"Diastolic blood pressure, Δ","[3]; Δ=V7−V1, NR 3000 mg daily, ±sd",1.5 ± 8.31 mmHg
same,"Pulse, Δ","[3]; Δ=V7−V1, NR 3000 mg daily, ±sd",-3.1 ± 9.48 min⁻¹
same,"Systolic blood pressure, Δ","[3]; Δ=V7−V1, NR 3000 mg daily, ±sd",0.1 ± 8.29 mmHg
same,"Weight, Δ","[3]; Δ=V7−V1, NR 3000 mg daily, ±sd",0 ± 0.58 kg
